Reference: ChEMBL document CHEMBL1201862, “PubChem BioAssay data set” (2004)
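Interpolation was linear, between the two tested concentrations surrounding the appropriate level; five concentrations were tested over 48 hours in 96-well plates. Abbreviation: GI50, concentration required for 50% inhibition of growth.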 The source made the active and inactive calls. No stated cut-off is given here; in the data, active = GI50 up to about 1.1 µM and inactive = higher.

Columns and labels:
Test in all cases: inhibition of tumour cell growth, NCI panel, 48 h
786-0 = tested on: 786-0
A549 = tested on: A549
ACHN = tested on: ACHN
CAKI-1 = tested on: CAKI-1
CCRF-CEM = tested on: CCRF-CEM
EKVX = tested on: EKVX
HCT-116 = tested on: HCT-116
HOP-92 = tested on: HOP-92
HT-29 = tested on: HT-29
KM12 = tested on: KM12
LOX IMVI = tested on: LOX IMVI
MOLT-4 = tested on: MOLT-4
Malme-3M = tested on: Malme-3M
NCI-H522 = tested on: NCI-H522
OVCAR-8 = tested on: OVCAR-8
SF-295 = tested on: SF-295
SK-OV-3 = tested on: SK-OV-3
A498 = tested on: A498

Measured: GI50

COc1ccc2c(c1)[n+]([O-])c(C(=O)CC(=O)C(=O)Nc1cccc(C)c1C)c(C)[n+]2[O-]
inactive: 786-0 > 100 µM | A549 > 100 µM | ACHN > 100 µM | CAKI-1 > 100 µM | CCRF-CEM > 100 µM | EKVX > 100 µM | HCT-116 > 100 µM | HOP-92 > 100 µM | HT-29 > 100 µM | KM12 > 100 µM | LOX IMVI > 100 µM | MOLT-4 > 100 µM | Malme-3M > 100 µM | NCI-H522 > 100 µM | OVCAR-8 > 100 µM | SF-295 > 100 µM | SK-OV-3 > 100 µM

CC1COC(C)(C)P(=O)(c2ccccc2)C1 (stereo not given)
inactive: 786-0 > 100 µM | A498 > 100 µM | A549 > 100 µM | ACHN > 100 µM | CCRF-CEM > 100 µM | EKVX > 100 µM | HCT-116 > 100 µM | HT-29 > 100 µM | KM12 > 100 µM | LOX IMVI > 100 µM | MOLT-4 > 100 µM | Malme-3M > 100 µM | NCI-H522 > 100 µM | OVCAR-8 > 100 µM | SF-295 > 100 µM | SK-OV-3 > 100 µM

CCOC(=O)/C(=C\c1ccc(OCc2ccccc2)c(OC)c1)C(=O)c1ccccc1
inactive: 786-0 20 µM | A549 > 10 µM | ACHN 18.1 µM | CAKI-1 24.7 µM | CCRF-CEM 23.6 µM | EKVX 27.4 µM | HCT-116 17.5 µM | KM12 19.5 µM | LOX IMVI 15.9 µM | MOLT-4 18.3 µM | Malme-3M 16.7 µM | NCI-H522 17.7 µM | OVCAR-8 > 10 µM | SF-295 22.3 µM | SK-OV-3 64.9 µM

COc1ccc(Cn2c(C)nc3c2C(=O)c2ccccc2C3=O)cc1
inactive: 786-0 5.4 µM | A549 8.61 µM | ACHN 10.3 µM | CCRF-CEM 4.05 µM | EKVX 13.8 µM | HCT-116 3.74 µM | HT-29 4.94 µM | KM12 5.31 µM | LOX IMVI 2.52 µM | MOLT-4 2.59 µM | Malme-3M 9.46 µM | NCI-H522 6.01 µM | OVCAR-8 7.01 µM | SF-295 9.48 µM | SK-OV-3 14.8 µM

CC(=O)C(CN(C(C)C)C(C)C)C(c1ccccc1)c1c(O)c2ccccc2oc1=O (stereo not given)
inactive: 786-0 > 100 µM | A498 > 100 µM | A549 > 100 µM | ACHN > 100 µM | CAKI-1 > 100 µM | CCRF-CEM > 100 µM | EKVX > 100 µM | HCT-116 > 100 µM | HT-29 > 100 µM | KM12 > 100 µM | LOX IMVI > 100 µM | MOLT-4 > 100 µM | Malme-3M > 100 µM | NCI-H522 > 100 µM | OVCAR-8 > 100 µM | SF-295 > 100 µM | SK-OV-3 > 100 µM
